Source: patent publication US20220251124A1, “3,5-BIS(PHENYL)-1H-HETEROARYL DERIVATIVES AS MEDICAMENTS” (INSTITUTE OF BIOTECHNOLOGY CAS, V.V.I., priority 2019, published 2022)
pIC50: −log10 of the molar value. Where two headings read alike, the source gives them in different places.

Experiments:
Type in all cases: cell-based
MCF7 cells = assay: crystal violet assay, cellular viability (cytostatic and cytotoxic effect), 48 hrs; conditions: Homo sapiens
Experimental: (§1) Compound 1 and a comparative compound deferasirox (DFX) were tested in their efficacy to kill/suppress proliferation of malignant breast cancer MCF7 cells representing estrogen-dependent type of breast cancer. Briefly, 10.000 cells per well were seeded in a 96-well plate on one day and the next day the tested compounds were added and incubated with the cells for 48 hrs. The cells were then fixed with 4% paraformaldehyde, stained with 0.05% crystal violet, washed with PBS, and solubilized in 1% SDS. The absorbance of the plate at 595 nm was then measured, quantifying the number of viable cells.

MDA-MB-231 cells = assay: crystal violet assay, cellular viability, 48 hrs; conditions: for pIC50: MDA-MB-231, crystal violet
Experimental: as §1
Compound 1 and the comparative compound deferasirox were tested in their efficacy to kill/suppress proliferation of malignant MDA-MB-231 cancer cells representing hard to treat triple negative breast cancer. The procedure is identical to that in example 12.

[1] = test system: tamoxifen resistant MCF7 (Tam5R); assay: crystal violet assay, tamoxifen resistant cells; conditions: MCF7 Tam5R grown in the presence of 5 μM tamoxifen
Experimental: as §1
(§2) To test whether compound 1 is active against resistant cancer cells, we used tamoxifen-resistant MCF7, T47D. The IC50 values were again measured with the crystal violet assay performed as in example 12. We have documented that there is a significant difference in the ability of compound 1 to induce cytostatic and cytotoxic effects between the parental cells sensitive to tamoxifen and the resistant ones that grow even in the presence of tamoxifen (Table 11), yet the IC50 values are still in the nM range, making this compound very efficient.

[2] = test system: tamoxifen resistant T47D (Tam5R); assay: crystal violet assay, tamoxifen resistant cells; conditions: Homo sapiens, T47D Tam5R grown in the presence of 5 μM tamoxifen
Experimental: as §1, §2

MCF7 = assay: annexin V/PI staining, cell death induction, 48 hrs
Experimental: (§3) This effect seems to be based mainly on the cytostatic effect of compound 1. To define the ability to kill cells, cell death-inducing potency (cytotoxic efficacy) of DFX and compound 1 have been tested via annexin V/PI staining commonly used as a measure of apoptotic/necrotic cell death. Briefly, cells were seeded in 12-well plate at 100,000 per well, incubated with the selected compounds for 48 hours, then floating cells were spun, adherent cells trypsinized and spun as well followed by the staining with AnnexinV-FITC and PI probes. Cells were then washed with PBS and measured via Fluorescence Activated Sorter.
Since compound 1 is an iron chelator, we have evaluated the effect of pre-loading compound 1 with iron at a 2:1 ratio and then applying it to the cells, followed by measurement of cell death using the Annexin V/PI staining as in example 4.

OVCAR = assay: as above
Experimental: as §3

non-malignant HFP1 cells = assay: as above; conditions: for dead cells (AnnexinV/PI): 48 hrs, HFP1
Experimental: as §3

[3] = test system: UPF16A leukemia cell line; assay: alamarBlue Cell Viability Reagent, 48 hrs
Experimental: (§4) Compound 1 and a comparative compound deferasirox (DFX) were tested in their efficacy to kill/suppress proliferation of several leukemia cells. Briefly, 10.000 cells per well were seeded in a 96-well plate on one day and the next day the tested compounds were added and incubated with the cells for 48 hrs. Cellular viability was determined as the ability to reduce the probe alamarBlue™ Cell Viability Reagent.

UPF1H leukemia cell line [4] = assay: alamarBlue Cell Viability Reagent, 48 hrs
Experimental: as §4

UPF4D leukemia cell line [5] = assay: alamarBlue Cell Viability Reagent, 48 hrs
Experimental: as §4

UPF9T leukemia cell line [6] = assay: alamarBlue Cell Viability Reagent, 48 hrs
Experimental: as §4

leukemia cells = assay: alamarBlue viability, leukemia cells overall
Experimental: as §4

[7] = test system: UPF16A leukemia cell line; assay: AnnexinV/PI assay, cell death induction, 48 hrs
Experimental: as §3
(§5) This effect seems to be based mainly on the cytostatic effect of compound 1. To define the ability to kill cells, cell death-inducing potency (cytotoxic efficacy) of DFX and compound 1 have been tested via annexin V/PI staining commonly used as a measure of apoptotic/necrotic cell death (see example 15). […] Compound 1 killed cancer cells with effects higher by almost 3 orders of magnitude than those of deferasirox. Such results are unprecedented and very unexpected.

UPF1H leukemia cell line [8] = assay: AnnexinV/PI assay, cell death induction, 48 hrs
Experimental: as §3, §5

UPF4D leukemia cell line [9] = assay: AnnexinV/PI assay, cell death induction, 48 hrs
Experimental: as §3, §5

UPF9T leukemia cell line [10] = assay: AnnexinV/PI assay, cell death induction, 48 hrs
Experimental: as §3, §5

O=C(NCCCCCCCCCC[P+](c1ccccc1)(c1ccccc1)c1ccccc1)c1ccc(-n2nc(-c3ccccc3O)nc2-c2ccccc2O)cc1 [Compound 1, (10-(4-(3,5-bis(2-hydroxyphenyl)-1H-1,2,4-triazol-1-yl)benzamido)decyl) triphenylphosphonium Chloride]
viability at 0.03 µM (MCF7 cells; 0.030 μM, MCF7, read-out: viable cells compared to non-treated controls): 33.7%
viability at 0.1 µM (MCF7 cells; 0.100 μM, MCF7, read-out: viable cells compared to non-treated controls): 23.6%
viability at 0.3 µM (MCF7 cells; 0.300 μM, MCF7, read-out: viable cells compared to non-treated controls): 14.8%
viability at 1 µM (MCF7 cells; 1 μM, MCF7, read-out: viable cells compared to non-treated controls): 7.28%
viability at 3 µM (MCF7 cells; 3 μM, MCF7, read-out: viable cells compared to non-treated controls): 5.2%
viability at 10 µM (MCF7 cells; 10 μM, MCF7, read-out: viable cells compared to non-treated controls): 2.31%
viability at 30 µM (MCF7 cells; 30 μM, MCF7, read-out: viable cells compared to non-treated controls): 0.69%
pIC50 (MCF7 cells; MCF7 (parental/control), crystal violet, read-out: IC50): 8.10
pIC50 (MCF7 cells; MCF7, crystal violet, read-out: IC50 (suppression of proliferation to 50%)): 8.10
viability at 0.03 µM (MDA-MB-231 cells; Homo sapiens, 0.030 μM, MDA-MB-231, read-out: viable cells compared to non-treated controls): 71.1%
viability at 0.1 µM (MDA-MB-231 cells; Homo sapiens, 0.100 μM, MDA-MB-231, read-out: viable cells compared to non-treated controls): 52.5%
viability at 0.3 µM (MDA-MB-231 cells; Homo sapiens, 0.300 μM, MDA-MB-231, read-out: viable cells compared to non-treated controls): 37.4%
viability at 1 µM (MDA-MB-231 cells; Homo sapiens, 1 μM, MDA-MB-231, read-out: viable cells compared to non-treated controls): 27.8%
viability at 3 µM (MDA-MB-231 cells; Homo sapiens, 3 μM, MDA-MB-231, read-out: viable cells compared to non-treated controls): 18.2%
viability at 10 µM (MDA-MB-231 cells; Homo sapiens, 10 μM, MDA-MB-231, read-out: viable cells compared to non-treated controls): 0.29%
viability at 30 µM (MDA-MB-231 cells; Homo sapiens, 30 μM, MDA-MB-231, read-out: viable cells compared to non-treated controls): 0.51%
pIC50 (MDA-MB-231 cells; Homo sapiens, MDA-MB-231, 48 h): 6.88
pIC50 (MDA-MB-231 cells; Homo sapiens, MDA-MB-231, 48 h, text): 6.88
pIC50 (MDA-MB-231 cells): 6.89
pIC50 [1]: 7.42
pIC50 [2]: 6.95
dead cells (AnnexinV/PI) (MCF7; 5 μM, +Fe^+3 (pre-loaded with iron at a 2:1 ratio)): 24.3 (1.1) %
dead cells (AnnexinV/PI) (MCF7; 5 μM, alone): 38.5 (8.8) %
dead cells (AnnexinV/PI) (MCF7; 10 μM, +Fe^+3 (pre-loaded with iron at a 2:1 ratio)): 25.7 (2.5) %
dead cells (AnnexinV/PI) (MCF7; 10 μM, alone): 46.6 (7.8) %
dead cells (AnnexinV/PI) (OVCAR; 1 μM): 31.6 (10.3) %
dead cells (AnnexinV/PI) (OVCAR; 2 μM): 39.7 (9.8) %
dead cells (AnnexinV/PI) (OVCAR; 5 μM): 52.2 (17.5) %
dead cells (AnnexinV/PI) (non-malignant HFP1 cells; 1 μM): 12.3 (0.9) %
dead cells (AnnexinV/PI) (non-malignant HFP1 cells; 2 μM): 13.6 (1.4) %
dead cells (AnnexinV/PI) (non-malignant HFP1 cells; 5 μM): 23.3 (1.1) %
concentrations at which toxic effect could be detected (non-malignant HFP1 cells; non-malignant HFP1 cells): higher than 5 μM
viability at 0.03 µM ([3]; 0.030 μM, 48 hrs, UPF16A, read-out: viable cells compared to non-treated controls): 75.7%
viability at 0.1 µM ([3]; 0.100 μM, 48 hrs, UPF16A, read-out: viable cells compared to non-treated controls): 50.2%
viability at 0.3 µM ([3]; 0.300 μM, 48 hrs, UPF16A, read-out: viable cells compared to non-treated controls): 30.8%
viability at 3 µM ([3]; 3 μM, 48 hrs, UPF16A, read-out: viable cells compared to non-treated controls): 4%
viability at 10 µM ([3]; 10 μM, 48 hrs, UPF16A, read-out: viable cells compared to non-treated controls): 0.31%
pIC50 ([3]; 48 h): 6.96
viability at 0.03 µM (UPF1H leukemia cell line [4]; 0.030 μM, 48 hrs, read-out: viable cells compared to non-treated controls): 94.1%
viability at 0.1 µM (UPF1H leukemia cell line [4]; 0.100 μM, 48 hrs, read-out: viable cells compared to non-treated controls): 81.9%
viability at 0.3 µM (UPF1H leukemia cell line [4]; 0.300 μM, 48 hrs, read-out: viable cells compared to non-treated controls): 31.1%
viability at 3 µM (UPF1H leukemia cell line [4]; 3 μM, 48 hrs, read-out: viable cells compared to non-treated controls): 5.8%
viability at 10 µM (UPF1H leukemia cell line [4]; 10 μM, 48 hrs, read-out: viable cells compared to non-treated controls): 0.04%
pIC50 (UPF1H leukemia cell line [4]; 48 h): 6.64
viability at 0.03 µM (UPF4D leukemia cell line [5]; 0.030 μM, 48 hrs, UPF4D, read-out: viable cells compared to non-treated controls): 90.1%
viability at 0.1 µM (UPF4D leukemia cell line [5]; 0.100 μM, 48 hrs, UPF4D, read-out: viable cells compared to non-treated controls): 49.8%
viability at 0.3 µM (UPF4D leukemia cell line [5]; 0.300 μM, 48 hrs, UPF4D, read-out: viable cells compared to non-treated controls): 0.56%
viability at 3 µM (UPF4D leukemia cell line [5]; 3 μM, 48 hrs, UPF4D, read-out: viable cells compared to non-treated controls): 0.74%
viability at 10 µM (UPF4D leukemia cell line [5]; 10 μM, 48 hrs, UPF4D, read-out: viable cells compared to non-treated controls): 0.1%
pIC50 (UPF4D leukemia cell line [5]; 48 h): 7.05
viability at 0.03 µM (UPF9T leukemia cell line [6]; 0.030 μM, 48 hrs, UPF9T, read-out: viable cells compared to non-treated controls): 44.8%
viability at 0.1 µM (UPF9T leukemia cell line [6]; 0.100 μM, 48 hrs, UPF9T, read-out: viable cells compared to non-treated controls): 10.5%
viability at 0.3 µM (UPF9T leukemia cell line [6]; 0.300 μM, 48 hrs, UPF9T, read-out: viable cells compared to non-treated controls): 2%
viability at 3 µM (UPF9T leukemia cell line [6]; 3 μM, 48 hrs, UPF9T, read-out: viable cells compared to non-treated controls): 6.7%
viability at 10 µM (UPF9T leukemia cell line [6]; 10 μM, 48 hrs, UPF9T, read-out: viable cells compared to non-treated controls): 6.9%
pIC50 (UPF9T leukemia cell line [6]; 48 h): 7.70
pIC50 (leukemia cells; 48 h, read-out: IC50 (suppression of proliferation to 50%)): 6.70 to 7.70
same effect at a concentration lower than deferasirox (leukemia cells; IC50 versus deferasirox, leukemia cells): 40-4000 fold
efficacy against leukemia cell lines (leukemia cells; as seen in previous tables): 20 to 200 nM
dead cells (AnnexinV/PI) ([7]; 0.1 μM): 45.4 (16.2) %
dead cells (AnnexinV/PI) ([7]; 1 μM): 71.8 (20.2) %
dead cells (AnnexinV/PI) (UPF1H leukemia cell line [8]; 0.1 μM): 85.3 (10.9) %
dead cells (AnnexinV/PI) (UPF1H leukemia cell line [8]; 1 μM): 98.3 (0.6) %
dead cells (AnnexinV/PI) (UPF4D leukemia cell line [9]; 0.1 μM): 87.3 (13.4) %
dead cells (AnnexinV/PI) (UPF4D leukemia cell line [9]; 1 μM): 96.7 (3.9) %
dead cells (AnnexinV/PI) (UPF9T leukemia cell line [10]; 0.1 μM): 88.2 (4.8) %
dead cells (AnnexinV/PI) (UPF9T leukemia cell line [10]; 1 μM): 99.0 (0.6) %
